Laboratory results taken from US20240189266A1, “Lactoyl Amino Acids for the Treatment of Metabolic Disease” (The Board of Trustees of the Leland Stanford Junior …, priority 2021, published 2024).

Experiments:
[1] = Plasma Lac-Phe level after intraperitoneal injection; type: in vivo; details: C57BL/6J DIO, mouse, 50 mg/kg IP, DIO mice, mean±SEM, read-out: plasma levels 30 min post injection
Procedure: General animal information. Animal experiments were performed according to procedure approved by the Stanford University Administrative Panel on Laboratory Animal Care (APLAC). Mice were maintained in 12-hr light-dark cycles at 22° C. and ˜50% relative humidity and fed a standard irradiated rodent chow diet. Where indicated, high-fat diet (D12492, Research Diets 60% kcal from fat) was used. C57BL/6J (stock no. 000664) and C57BL/6J DIO mice (stock no. 380050) were purchased from Jackson Laboratory. C57BL/6NCrl (stock no. 027) mice were purchased from Charles River Laboratory. Whole body CNDP2 knockout mice (catalog number, C57BL/6NCrl-Cndp2em1(IMPC)Mbp/Mmucd, RRID: MMRRC_043492-UCD) were obtained from the Mutant Mouse Regional Resource Center, a NCRR-NIH funded strain repository. For in vivo injection of mice with compounds including Lac-Phe, lactate, and phenylalanine, compounds were dissolved in 18:1:1 (by volume) of saline/Kolliphor EL (Sigma Aldrich)/DMSO. Compounds were administered to mice daily via intraperitoneal injections at 5 μl/g body weight at the indicated doses. For all injection experiments, mice were mock injected with the vehicle for 3-5 days until body weights have stabilized. For glucose tolerance tests, mice were fasted for 6 hours then injected with glucose at 10 μl/g body weight. A dose of 1 g/kg was used for the GTT of vehicle and Lac-Phe treated obese mice. […]

[2] = Acute Lac-Phe administration to DIO mice in metabolic chambers; type: in vivo; details: single 50 mg/kg IP
Procedure: (§1) General animal information. Animal experiments were performed according to procedure approved by the Stanford University Administrative Panel on Laboratory Animal Care (APLAC). Mice were maintained in 12-hr light-dark cycles at 22° C. and ˜50% relative humidity and fed a standard irradiated rodent chow diet. Where indicated, high-fat diet (D12492, Research Diets 60% kcal from fat) was used. C57BL/6J (stock no. 000664) and C57BL/6J DIO mice (stock no. 380050) were purchased from Jackson Laboratory. C57BL/6NCrl (stock no. 027) mice were purchased from Charles River Laboratory. Whole body CNDP2 knockout mice (catalog number, C57BL/6NCrl-Cndp2em1(IMPC)Mbp/Mmucd, RRID: MMRRC_043492-UCD) were obtained from the Mutant Mouse Regional Resource Center, a NCRR-NIH funded strain repository. For in vivo injection of mice with compounds including Lac-Phe, lactate, and phenylalanine, compounds were dissolved in 18:1:1 (by volume) of saline/Kolliphor EL (Sigma Aldrich)/DMSO. Compounds were administered to mice daily via intraperitoneal injections at 5 μl/g body weight at the indicated doses. For all injection experiments, mice were mock injected with the vehicle for 3-5 days until body weights have stabilized. For glucose tolerance tests, mice were fasted for 6 hours then injected with glucose at 10 μl/g body weight. A dose of 1 g/kg was used for the GTT of vehicle and Lac-Phe treated obese mice.

[3] = Chronic 10-day Lac-Phe administration to DIO mice (food intake, body weight, GTT, tissue weights); type: in vivo
Procedure: as §1

[4] = 7-day comparison of Lac-Phe with lactate and phenylalanine in DIO mice; type: in vivo; details: 50 mg/kg IP daily, 13-week male DIO mice
Procedure: as §1

[5] = 9-day Lac-Phe treatment of 18 week DIO mice (FIG. 17); type: in vivo; details: 50 mg/kg/day IP
Procedure: as §1

[6] = test system: AgRP neurons in the arcuate nucleus of hypothalamus (ARH); test: Whole-cell patch-clamp slice electrophysiology, AgRP neurons; type: cell-based, mice
Procedure: (§2) Slice electrophysiology studies. Several genetic mouse strains were used for electrophysiological recordings from identified neural populations. These included AgRP-IRES-Cre/Rosa26-LSL-tdTOMATO mice for recordings from AgRP neurons in the arcuate nucleus of hypothalamus (ARH); POMC-CreER/Rosa26-LSL-tdTOMATO mice (with 200 mg/kg tamoxifen induction at 8-12 weeks) were used for recordings from POMC neurons in the ARH; SF1-Cre/Rosa26-LSL-tdTOMATO mice were used for recordings from SF1 neurons in the ventromedial hypothalamus (VMH); TPH2-CreER/Rosa26-LSL-tdTOMATO mice (with 200 mg/kg tamoxifen induction at 8-12 weeks) were used for recording from 5-HT neurons in the dorsal raphe nucleus (DRN). Mice (males and females, 8-16 weeks old) were anesthetized with isoflurane and transcardially perfused with a modified ice-cold sucrose-based cutting solution (pH 7.4; containing 10 mM NaCl, 25 mM NaHCO3, 195 mM sucrose, 5 mM glucose, 2.5 mM KCl, 1.25 mM NaH2PO4, 2 mM sodium pyruvate, 0.5 mM CaCl2, and 7 mM MgCl2, bubbled continuously with 95% O2 and 5% CO2). The mice were then decapitated, and the entire brain was removed and immediately submerged in the cutting solution. Coronal slices (220 μm) were cut with a Microm HM 650V vibratome (Thermo Scientific). Brain slices containing the desired region (ARH, VMH, or DRN) were collected for each corresponding mouse, and recordings were made at levels throughout this brain region. The slices were recovered for ˜30 minutes at 32° C. and then maintained at room temperature for another 1 hour in oxygenated (95% O2 and 5% CO2) artificial cerebrospinal fluid (ACSF, pH 7.4; containing 126 mM NaCl, 2.5 mM KCl, 2.4 mM CaCl2, 1.2 mM NaH2PO4, 1.2 mM MgCl2, 11.1 mM glucose, and 21.4 mM NaHCO3) before recording.
(§3) Slices were transferred to the recording chamber at 32° C. and perfused continuously with oxygenated ACSF at a flow rate of 1.8-2.0 ml/min. […] Recordings were made using a MultiClamp 700B amplifier (Axon Instruments), sampled using Digidata 1440A, and analyzed offline with pClamp 10.3 software (Axon Instruments). Series resistance was monitored during the recording, and the values were generally <10 MO and were not compensated. The liquid junction potential was monitored and corrected. […] To ensure each recorded neuron receive same amount of Lac-Phe, the neurons located on the surface of the slice were selected to record and the puff pipette was always put at a 100 μm horizontal and 100 μm vertical distance from the recorded neurons. […] Each neuron was recorded for at least 1 minute at baseline and only the neurons with stable baseline were used to test the Lac-Phe treatment. […]

POMC neurons in the ARH = test: Whole-cell patch-clamp slice electrophysiology, POMC neurons; type: cell-based, mice
Procedure: as §2, with “Coronal slices (220 μm) were cut with a Microm HM 650V vibratome (Thermo Scientific). Brain slices containing the desired region (ARH, VMH, or DRN) were collected for each corresponding mouse, and recordings were made at levels throughout this brain region. The slices were recovered for ˜30 minutes at 32° C. and then maintained at room temperature for another 1 hour in oxygenated (95% O2 and 5% CO2) artificial cerebrospinal fluid (ACSF, pH 7.4; containing 126 mM NaCl, 2.5 mM KCl, 2.4 mM CaCl2, 1.2 mM NaH2PO4, 1.2 mM MgCl2, 11.1 mM glucose, and 21.4 mM NaHCO3) before recording.” left out
as §3

[7] = test system: serotonin (5-HT)-positive neurons in the dorsal raphe nuclei (DRN); test: Whole-cell patch-clamp slice electrophysiology, 5-HT neurons; type: cell-based, mice; details: 50 μM
Procedure: (§4) Slice electrophysiology studies. Several genetic mouse strains were used for electrophysiological recordings from identified neural populations. These included AgRP-IRES-Cre/Rosa26-LSL-tdTOMATO mice for recordings from AgRP neurons in the arcuate nucleus of hypothalamus (ARH); POMC-CreER/Rosa26-LSL-tdTOMATO mice (with 200 mg/kg tamoxifen induction at 8-12 weeks) were used for recordings from POMC neurons in the ARH; SF1-Cre/Rosa26-LSL-tdTOMATO mice were used for recordings from SF1 neurons in the ventromedial hypothalamus (VMH); TPH2-CreER/Rosa26-LSL-tdTOMATO mice (with 200 mg/kg tamoxifen induction at 8-12 weeks) were used for recording from 5-HT neurons in the dorsal raphe nucleus (DRN). […]
(§5) Slices were transferred to the recording chamber at 32° C. and perfused continuously with oxygenated ACSF at a flow rate of 1.8-2.0 ml/min. […] Recordings were made using a MultiClamp 700B amplifier (Axon Instruments), sampled using Digidata 1440A, and analyzed offline with pClamp 10.3 software (Axon Instruments). Series resistance was monitored during the recording, and the values were generally <10 MO and were not compensated. The liquid junction potential was monitored and corrected. […] Each neuron was recorded for at least 1 minute at baseline and only the neurons with stable baseline were used to test the Lac-Phe treatment. […]

[8] = test system: SF1-positive neurons of the ventromedial hypothalamic nucleus (VMH); test: Whole-cell patch-clamp slice electrophysiology, SF1 neurons; type: cell-based, mice; details: 50 μM
Procedure: as §4, §5

RAW264.7 cells = test: In vitro Lac-Phe production assay with added lactate, RAW264.7; type: cell-based, murine; details: lactate 25 mM in conditioned media
Procedure: Cell line cultures. All cell lines were obtained from ATCC and grown at 37° C. with 5% CO2. RAW 264.7, HEK293T, HEK293A, C2C12, F442A, 3T3-L1, Caco2, and SW48 were grown in Dulbecco's modified Eagle's medium (DMEM) with 10% fetal bovine serum (FBS) and penicillin/streptomycin (pen/strep). AML-12 cells were grown in DMEM with 10% FBS and pen/strep supplemented with Insulin-Transferrin-Selenium. T84 cells were grown in Dulbecco's modified Eagle's medium/nutrient mixture F-12 (DMEM/F-12) with 5% FBS and pen/strep.
In vitro Lac-Phe Production assay. Cells were plated in 12-well plates at 70-80% confluence. The next day, cells were washed two times with PBS and incubated in 0.5 ml serum free media. After overnight incubation, 400 μl of media was removed and 20 μl of 1 M hydrochloride added to acidify the media and protonate Lac-Phe. 400 μl of ethyl acetate was added into each sample and vortexed for 30 seconds to extract Lac-Phe into the organic layer. 300 μl from the top layer was transferred to a new Eppendorf tube and dried down under a stream of nitrogen. The residue was re-suspended in 100 ul of an 80:20 mixture of acetonitrile/water. Cells were kept on ice to harvest the lysate. 150 μl of PBS was added into each well and the cells scraped into an Eppendorf tube. This step was repeated again to ensure all cells have been harvested. […]

[9] = test system: primary peritoneal macrophages; test: In vitro Lac-Phe production assay with added lactate, primary macrophages; type: cell-based, mice; details: lactate 25 mM in conditioned media
Procedure: Primary peritoneal macrophage isolation. Mice were injected with 2 ml of 3% brewer thioglycollate medium (Fisher, B111716) and the macrophage elicitation allowed to proceed for 3 days. For the macrophage isolation, mice were euthanized with CO2 and the abdominal skin peeled back to expose the peritoneal wall. 10 ml of ice-cold calcium and magnesium free DPBS was injected into the peritoneal cavity, taking care not to puncture the organs. The mice were gently massaged and the fluid aspirated from the peritoneum using the same syringe and needle. The fluid was dispensed into a 50 ml falcon tube on ice. Cells were then centrifuged at 4° C. for 10 minutes at 400×g. The supernatant was discarded and the cells re-suspended in cold DMEM/F-12 containing 10% FBS and pen/strep. Cells were allowed to adhere in the incubator for at least 2 hours then washed three times in warm PBS to remove non-adherent cells. Fresh media was added to the cells and experiments performed within 1-2 days after the isolation.
In vitro Lac-Phe Production assay. Cells were plated in 12-well plates at 70-80% confluence. The next day, cells were washed two times with PBS and incubated in 0.5 ml serum free media. After overnight incubation, 400 μl of media was removed and 20 μl of 1 M hydrochloride added to acidify the media and protonate Lac-Phe. […]

[10] = 50 mg/kg/day IP, 10 days, DIO mice

For C[C@H](O)C(=O)N[C@@H](Cc1ccccc1)C(=O)O [Lac-Phe, N-lactoyl-phenylalanine], the concentration at 30 min [1] was 3.8 µM, the “suppression of food intake compared to vehicle-treated mice” value ([2]; 12 h post-administration) was 52% and the “carbon dioxide production (VCO2)” value ([2]; 12 hr) was “did not alter”. For the same molecule, the “oxygen consumption (VO2)” value ([2]; 12 hr) was “did not alter”, the “respiratory exchange ratio (RER)” value ([2]; 12 hr) was “did not alter” and the “food intake over 12 h post-administration” value ([2]; mean±SEM (vehicle 6.4±0.6)) was 3.0±1.0 kcal/mouse. For the same molecule, the ambulatory activity ([2]; vs vehicle) was “not different between groups”, the “brown fat (BAT) mass vs vehicle” value [3, 10] was −41% and the “change in total body weight” value [3, 10] was −7%. The “epididymal fat (eWAT) mass vs vehicle” value [3, 10] was −20%, the “subcutaneous inguinal fat (iWAT) mass vs vehicle” value [3, 10] was −41% and the “total lean mass, estimated by weights of other organs” value [3, 10] was “unaffected”. The “reduction in body weight” value ([3]; 50 mg/kg/day IP, 10 days, DIO mice, mean±SEM) was -2.8 ± 1.1 g, the “food intake, chronic treatment” value ([3]; 50 mg/kg/day IP, 10 days, DIO mice, mean±SEM (vehicle 2.9±0.1)) was 2.1±0.1 g/mouse/day and the glucose tolerance test ([3]; day 10, 1 g/kg glucose, 6 h fast, vs vehicle) was “improved glucose clearance”. The “body weight vs control” value [4] was “suppressed”, the “food intake vs control” value [4] was “suppressed” and the “glucose homeostasis (glucose tolerance test)” value ([5]; 1 g/kg glucose, 6 h fast) was “improves glucose homeostasis”. The body weight ([5]; 9-day, 18 week male DIO mice) was “suppresses”, the “appetite (cumulative food intake)” value ([5]; 18 week male DIO mice) was “suppresses” and the “effect on AgRP neurons (firing frequency, resting membrane potential)” value ([6]; 50 μM) was “rapidly inhibited”. For the same molecule, the “hyperpolarization of AgRP neurons in presence of TTX, DNQX, D-AP5, bicuculline” value ([6]; 50 μM with inhibitor cocktail) was “persisted”, the “AgRP neurons hyperpolarized (response ratio)” value ([6]; all concentrations tested, baseline or inhibitor-treated) was over 70% and the “concentration showing inhibitory activity on AgRP neurons” value ([6]; dose response, lowest active concentration) was at least 1 µM. The “effect on POMC neurons (firing frequency, depolarization)” value (POMC neurons in the ARH; 50 μM) was “rapidly activate”, the “depolarization of POMC neurons in presence of inhibitor cocktail” value (POMC neurons in the ARH; 50 μM with inhibitor cocktail) was “persisted” and the “concentration required to activate POMC neurons” value (POMC neurons in the ARH; dose response) was “at least 20 μM”. The “excitability of 5-HT-positive neurons” value [7] was “No effect” and the “excitability of SF1-positive neurons” value [8] was “No effect”.
With C[C@H](O)C(=O)[O-].[Na+] [lactate, sodium L-lactate] the “body weight vs control” value [4] was “identical to vehicle treated mice”, the “food intake vs control” value [4] was “identical to vehicle treated mice” and the “increase of extracellular levels of Lac-Phe” value (RAW264.7 cells) was “+85%”. For the same molecule, the “increase of extracellular levels of Lac-Phe” value [9] was “+200%”.
For N[C@@H](Cc1ccccc1)C(=O)O [phenylalanine, L-Phenylalnine], the “body weight vs control” value [4] was “identical to vehicle treated mice” and the “food intake vs control” value [4] was “identical to vehicle treated mice”.
